Key:
Experiment in all cases: Kinase selectivity, DiscoverX scanMAX Kinase assay panel (% control)
Assay type in all cases: binding
[1] = molecular target: T1, kinases of the scanMAX Kinase assay panel (Homo sapiens, UniProt Q8TDX7); settings: NEK7; 1 uM
T1 construct: purchased DiscoverX Co. (contract measurement) scanMAX Kinase assay panel
Method in brief: (§1)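 Binding-panel profiling at one concentration, 1 uM in DMSO; values are % of DMSO control after subtracting the positive-control floor. Less than 35% means activity on that kinase.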

[2] = molecular target: T2, kinases of the scanMAX Kinase assay panel (Homo sapiens, UniProt Q9Y243); settings: AKT3; 1 uM
T2 construct: purchased DiscoverX Co. (contract measurement) scanMAX Kinase assay panel
Method in brief: as §1

[3] = molecular target: T3, kinases of the scanMAX Kinase assay panel (Homo sapiens, UniProt Q9NQU5); settings: PAK6; 1 uM
T3 construct: purchased DiscoverX Co. (contract measurement) scanMAX Kinase assay panel
Method in brief: as §1

[4] = molecular target: T4, kinases of the scanMAX Kinase assay panel (Homo sapiens, UniProt Q32MK0); settings: MLCK; 1 uM
T4 construct: purchased DiscoverX Co. (contract measurement) scanMAX Kinase assay panel
T4 sequence (Q32MK0 1-819): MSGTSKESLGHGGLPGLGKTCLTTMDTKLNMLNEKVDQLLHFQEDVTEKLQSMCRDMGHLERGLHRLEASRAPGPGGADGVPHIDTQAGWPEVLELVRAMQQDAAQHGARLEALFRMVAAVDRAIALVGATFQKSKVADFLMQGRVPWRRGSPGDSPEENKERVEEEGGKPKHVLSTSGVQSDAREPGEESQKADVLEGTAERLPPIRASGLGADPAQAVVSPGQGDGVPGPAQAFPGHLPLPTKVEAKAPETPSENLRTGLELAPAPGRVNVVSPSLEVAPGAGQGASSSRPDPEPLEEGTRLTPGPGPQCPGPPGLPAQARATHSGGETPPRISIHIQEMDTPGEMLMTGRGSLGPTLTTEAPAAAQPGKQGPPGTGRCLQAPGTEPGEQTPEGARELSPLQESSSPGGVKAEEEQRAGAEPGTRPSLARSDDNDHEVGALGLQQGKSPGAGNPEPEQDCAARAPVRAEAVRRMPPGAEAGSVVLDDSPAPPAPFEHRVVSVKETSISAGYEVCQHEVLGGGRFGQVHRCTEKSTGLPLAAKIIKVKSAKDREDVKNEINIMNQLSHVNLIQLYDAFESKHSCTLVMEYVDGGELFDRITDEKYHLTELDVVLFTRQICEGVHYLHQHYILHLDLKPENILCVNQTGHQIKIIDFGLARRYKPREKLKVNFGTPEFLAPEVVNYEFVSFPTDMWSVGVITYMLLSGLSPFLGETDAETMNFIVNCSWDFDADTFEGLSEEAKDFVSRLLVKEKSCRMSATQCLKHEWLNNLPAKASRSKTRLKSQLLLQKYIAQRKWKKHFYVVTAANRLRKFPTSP
Method in brief: as §1

[5] = molecular target: T5, kinases of the scanMAX Kinase assay panel (Homo sapiens, UniProt P49841); settings: GSK3B; 1 uM
T5 construct: purchased DiscoverX Co. (contract measurement) scanMAX Kinase assay panel
Method in brief: as §1

[6] = molecular target: T6, kinases of the scanMAX Kinase assay panel (Homo sapiens, UniProt P42336, M1043I); settings: PIK3CA(M1043I); 1 uM
T6 construct: purchased DiscoverX Co. (contract measurement) scanMAX Kinase assay panel
Method in brief: as §1

[7] = molecular target: T7, kinases of the scanMAX Kinase assay panel (Homo sapiens, UniProt P24723); settings: PRKCH; 1 uM
T7 construct: purchased DiscoverX Co. (contract measurement) scanMAX Kinase assay panel
Method in brief: as §1

[8] = molecular target: T8, kinases of the scanMAX Kinase assay panel (Homo sapiens, UniProt Q15208); settings: NDR1; 1 uM
T8 construct: purchased DiscoverX Co. (contract measurement) scanMAX Kinase assay panel
Method in brief: as §1

[9] = molecular target: T9, kinases of the scanMAX Kinase assay panel (Homo sapiens, UniProt P42336, I800L); settings: PIK3CA(I800L); 1 uM
T9 construct: purchased DiscoverX Co. (contract measurement) scanMAX Kinase assay panel
Method in brief: as §1

[10] = molecular target: T10, kinases of the scanMAX Kinase assay panel (Homo sapiens, UniProt Q9UQ88); settings: CDC2L2; 1 uM
T10 construct: purchased DiscoverX Co. (contract measurement) scanMAX Kinase assay panel
T10 sequence (Q9UQ88 1-783): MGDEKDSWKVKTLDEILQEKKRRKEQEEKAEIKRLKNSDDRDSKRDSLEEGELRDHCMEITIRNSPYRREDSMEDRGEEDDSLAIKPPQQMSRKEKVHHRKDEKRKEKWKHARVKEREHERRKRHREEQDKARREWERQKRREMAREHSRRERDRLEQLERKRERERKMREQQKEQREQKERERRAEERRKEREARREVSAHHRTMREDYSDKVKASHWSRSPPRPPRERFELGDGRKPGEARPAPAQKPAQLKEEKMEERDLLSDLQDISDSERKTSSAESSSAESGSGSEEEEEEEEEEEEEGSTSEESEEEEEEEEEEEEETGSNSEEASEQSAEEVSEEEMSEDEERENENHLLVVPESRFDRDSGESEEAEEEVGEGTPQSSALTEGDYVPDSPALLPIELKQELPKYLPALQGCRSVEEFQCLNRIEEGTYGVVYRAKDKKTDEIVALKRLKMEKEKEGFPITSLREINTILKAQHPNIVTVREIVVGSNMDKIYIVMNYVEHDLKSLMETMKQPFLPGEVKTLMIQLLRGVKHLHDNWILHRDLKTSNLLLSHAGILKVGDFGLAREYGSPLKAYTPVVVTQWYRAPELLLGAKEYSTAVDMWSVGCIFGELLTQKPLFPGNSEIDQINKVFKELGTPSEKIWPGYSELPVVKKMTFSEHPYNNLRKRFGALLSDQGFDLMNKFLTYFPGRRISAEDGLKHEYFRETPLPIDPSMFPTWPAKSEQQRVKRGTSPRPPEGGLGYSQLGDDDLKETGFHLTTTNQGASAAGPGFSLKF
Method in brief: as §1

[11] = molecular target: T11, kinases of the scanMAX Kinase assay panel (Homo sapiens, UniProt P00533, G719C); settings: EGFR(G719C); 1 uM
T11 construct: purchased DiscoverX Co. (contract measurement) scanMAX Kinase assay panel
Method in brief: as §1

[12] = molecular target: T12, kinases of the scanMAX Kinase assay panel (Homo sapiens, UniProt O75716); settings: kinase STK16; 1 uM in DMSO
T12 construct: purchased DiscoverX Co. (contract measurement) scanMAX Kinase assay panel
Method in brief: as §1

[13] = molecular target: T13, kinases of the scanMAX Kinase assay panel (Mycobacterium tuberculosis, UniProt P9WI81); settings: read-out: % control
T13 construct: purchased DiscoverX Co. (contract measurement) scanMAX Kinase assay panel
Method in brief: as §1

T2 sequence (Q9Y243 whole entry): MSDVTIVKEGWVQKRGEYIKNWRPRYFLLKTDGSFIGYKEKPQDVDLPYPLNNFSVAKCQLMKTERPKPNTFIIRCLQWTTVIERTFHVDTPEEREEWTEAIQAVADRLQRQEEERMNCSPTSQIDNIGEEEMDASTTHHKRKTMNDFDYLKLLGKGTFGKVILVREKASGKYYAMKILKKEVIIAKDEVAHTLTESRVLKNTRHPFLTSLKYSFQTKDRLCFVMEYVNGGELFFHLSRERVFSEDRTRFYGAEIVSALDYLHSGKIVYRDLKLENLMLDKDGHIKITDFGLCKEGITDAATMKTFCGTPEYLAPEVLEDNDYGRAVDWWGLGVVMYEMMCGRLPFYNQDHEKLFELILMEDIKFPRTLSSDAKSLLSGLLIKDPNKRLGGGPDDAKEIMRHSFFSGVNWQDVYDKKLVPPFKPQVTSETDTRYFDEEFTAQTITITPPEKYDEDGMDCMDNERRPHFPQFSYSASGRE
T1 sequence (Q8TDX7 whole entry): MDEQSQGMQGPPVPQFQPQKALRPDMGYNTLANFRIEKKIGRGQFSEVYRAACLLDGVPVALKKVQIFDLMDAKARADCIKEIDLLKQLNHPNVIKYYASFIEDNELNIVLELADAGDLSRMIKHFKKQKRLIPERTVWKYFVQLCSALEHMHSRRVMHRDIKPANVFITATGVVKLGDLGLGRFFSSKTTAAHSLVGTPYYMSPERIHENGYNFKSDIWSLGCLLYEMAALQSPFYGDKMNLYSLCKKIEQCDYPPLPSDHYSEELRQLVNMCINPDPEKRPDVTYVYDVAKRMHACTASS
T6 sequence (P42336 whole entry M1043I): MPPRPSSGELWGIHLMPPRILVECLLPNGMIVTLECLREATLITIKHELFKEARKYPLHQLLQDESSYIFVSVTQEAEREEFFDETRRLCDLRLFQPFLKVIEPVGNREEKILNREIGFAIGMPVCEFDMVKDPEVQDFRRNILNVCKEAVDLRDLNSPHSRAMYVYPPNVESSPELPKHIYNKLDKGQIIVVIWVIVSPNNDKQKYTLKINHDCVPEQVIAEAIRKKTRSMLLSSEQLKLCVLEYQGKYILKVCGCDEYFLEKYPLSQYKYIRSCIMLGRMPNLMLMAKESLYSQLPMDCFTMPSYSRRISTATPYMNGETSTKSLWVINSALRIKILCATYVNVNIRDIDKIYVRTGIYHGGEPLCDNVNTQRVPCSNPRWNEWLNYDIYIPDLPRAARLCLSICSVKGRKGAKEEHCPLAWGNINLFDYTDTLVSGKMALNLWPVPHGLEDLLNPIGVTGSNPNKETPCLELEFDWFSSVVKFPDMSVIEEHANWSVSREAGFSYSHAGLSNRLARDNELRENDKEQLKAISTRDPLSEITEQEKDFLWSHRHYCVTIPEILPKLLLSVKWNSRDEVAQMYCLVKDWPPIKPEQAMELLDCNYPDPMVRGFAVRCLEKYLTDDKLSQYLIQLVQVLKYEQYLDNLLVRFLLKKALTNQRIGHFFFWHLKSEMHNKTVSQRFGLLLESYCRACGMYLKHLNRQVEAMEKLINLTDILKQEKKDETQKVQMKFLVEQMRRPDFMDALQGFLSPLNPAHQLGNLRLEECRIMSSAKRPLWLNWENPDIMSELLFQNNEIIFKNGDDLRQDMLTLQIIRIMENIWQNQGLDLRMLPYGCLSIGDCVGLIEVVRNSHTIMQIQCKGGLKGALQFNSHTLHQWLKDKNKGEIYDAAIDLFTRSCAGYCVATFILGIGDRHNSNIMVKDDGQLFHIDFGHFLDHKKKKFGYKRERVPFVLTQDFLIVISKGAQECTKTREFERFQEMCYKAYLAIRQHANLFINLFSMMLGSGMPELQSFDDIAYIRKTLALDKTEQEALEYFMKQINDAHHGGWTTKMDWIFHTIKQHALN
T12 sequence (O75716 whole entry): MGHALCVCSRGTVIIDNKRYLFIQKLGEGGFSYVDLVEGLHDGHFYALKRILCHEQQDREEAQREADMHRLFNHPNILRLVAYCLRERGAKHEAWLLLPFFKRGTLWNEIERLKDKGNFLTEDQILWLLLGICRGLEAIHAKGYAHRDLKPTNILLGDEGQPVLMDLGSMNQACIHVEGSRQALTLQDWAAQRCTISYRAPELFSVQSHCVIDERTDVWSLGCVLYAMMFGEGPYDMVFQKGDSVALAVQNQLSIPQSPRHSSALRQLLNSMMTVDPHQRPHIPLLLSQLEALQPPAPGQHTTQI
T7 sequence (P24723 whole entry): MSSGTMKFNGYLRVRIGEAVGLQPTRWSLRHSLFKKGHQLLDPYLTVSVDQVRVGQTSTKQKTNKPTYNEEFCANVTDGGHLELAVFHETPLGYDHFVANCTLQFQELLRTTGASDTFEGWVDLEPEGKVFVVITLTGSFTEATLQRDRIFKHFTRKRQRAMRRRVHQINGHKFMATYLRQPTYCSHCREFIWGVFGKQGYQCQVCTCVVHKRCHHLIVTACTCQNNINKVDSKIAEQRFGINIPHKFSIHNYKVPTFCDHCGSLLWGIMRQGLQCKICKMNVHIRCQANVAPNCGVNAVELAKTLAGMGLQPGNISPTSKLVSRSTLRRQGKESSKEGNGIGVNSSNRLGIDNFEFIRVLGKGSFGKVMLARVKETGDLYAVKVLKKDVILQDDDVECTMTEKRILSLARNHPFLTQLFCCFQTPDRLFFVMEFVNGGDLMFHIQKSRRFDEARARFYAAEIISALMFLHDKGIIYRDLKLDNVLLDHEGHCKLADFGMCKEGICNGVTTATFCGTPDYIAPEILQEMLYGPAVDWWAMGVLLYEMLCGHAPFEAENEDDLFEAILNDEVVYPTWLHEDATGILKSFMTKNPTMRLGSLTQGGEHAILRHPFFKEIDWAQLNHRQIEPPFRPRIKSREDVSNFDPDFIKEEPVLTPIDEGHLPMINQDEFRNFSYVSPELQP
T5 sequence (P49841 whole entry): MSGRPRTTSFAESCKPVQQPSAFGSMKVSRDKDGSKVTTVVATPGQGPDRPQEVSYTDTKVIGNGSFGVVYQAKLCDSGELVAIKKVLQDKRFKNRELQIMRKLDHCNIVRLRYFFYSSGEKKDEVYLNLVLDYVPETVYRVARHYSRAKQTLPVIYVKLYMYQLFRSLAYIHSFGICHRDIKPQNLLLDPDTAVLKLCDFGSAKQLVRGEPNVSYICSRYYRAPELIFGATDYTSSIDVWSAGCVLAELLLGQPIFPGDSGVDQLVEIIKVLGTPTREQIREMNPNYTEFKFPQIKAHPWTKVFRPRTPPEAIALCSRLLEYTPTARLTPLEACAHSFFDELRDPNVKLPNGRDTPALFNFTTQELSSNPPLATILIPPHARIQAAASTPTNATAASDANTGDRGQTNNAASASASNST
T9 sequence (P42336 whole entry I800L): as the sequence (P42336 whole entry M1043I) above, with I800L, I1043M counted along it
T13 sequence (P9WI81 whole entry): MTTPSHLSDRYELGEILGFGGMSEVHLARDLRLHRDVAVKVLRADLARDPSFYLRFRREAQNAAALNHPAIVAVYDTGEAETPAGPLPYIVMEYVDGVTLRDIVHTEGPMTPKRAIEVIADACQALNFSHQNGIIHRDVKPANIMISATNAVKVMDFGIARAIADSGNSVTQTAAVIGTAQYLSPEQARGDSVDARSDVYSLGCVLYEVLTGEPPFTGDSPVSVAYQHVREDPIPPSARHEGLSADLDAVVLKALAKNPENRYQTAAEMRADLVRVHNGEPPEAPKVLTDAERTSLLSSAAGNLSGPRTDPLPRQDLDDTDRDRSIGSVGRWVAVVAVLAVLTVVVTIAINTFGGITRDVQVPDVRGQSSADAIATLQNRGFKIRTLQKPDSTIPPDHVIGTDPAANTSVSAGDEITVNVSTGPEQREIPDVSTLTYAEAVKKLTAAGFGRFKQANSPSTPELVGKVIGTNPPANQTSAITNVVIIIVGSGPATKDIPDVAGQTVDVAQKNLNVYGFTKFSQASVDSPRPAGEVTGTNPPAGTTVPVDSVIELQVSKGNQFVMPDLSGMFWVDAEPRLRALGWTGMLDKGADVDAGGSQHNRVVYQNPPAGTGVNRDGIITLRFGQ
T3 sequence (Q9NQU5 whole entry): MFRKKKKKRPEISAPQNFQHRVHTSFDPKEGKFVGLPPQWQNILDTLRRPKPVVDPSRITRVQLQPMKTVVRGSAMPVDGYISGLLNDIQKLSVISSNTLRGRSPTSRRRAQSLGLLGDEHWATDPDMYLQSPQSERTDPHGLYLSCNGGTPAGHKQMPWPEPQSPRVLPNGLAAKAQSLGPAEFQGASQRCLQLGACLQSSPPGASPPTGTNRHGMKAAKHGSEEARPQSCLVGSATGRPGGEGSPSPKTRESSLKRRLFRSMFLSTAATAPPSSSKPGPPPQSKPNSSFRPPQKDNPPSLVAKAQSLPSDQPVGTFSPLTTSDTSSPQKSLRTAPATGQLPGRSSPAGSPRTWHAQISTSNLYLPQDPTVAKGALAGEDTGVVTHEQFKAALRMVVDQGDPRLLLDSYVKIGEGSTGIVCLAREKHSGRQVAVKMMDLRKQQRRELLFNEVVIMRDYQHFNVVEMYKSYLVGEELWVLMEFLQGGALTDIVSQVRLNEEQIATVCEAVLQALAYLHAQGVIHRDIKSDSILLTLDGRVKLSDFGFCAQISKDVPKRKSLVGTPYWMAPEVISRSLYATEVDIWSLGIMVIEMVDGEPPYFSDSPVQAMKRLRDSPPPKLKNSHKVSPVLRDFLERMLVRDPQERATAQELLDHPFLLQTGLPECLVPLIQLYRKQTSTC

## CCNc1nc(Nc2ccc(C(=O)N3CCC(N4CCOCC4)CC3)cc2OC)nc2[nH]cc(C(F)(F)F)c12 [Example 104, (4-((4-(ethylamino)-5-(trifluoromethyl)-7H-pyrrolo[2,3-d]pyrimidine-2-yl)amino)-3-methoxyphenyl)(4-morpholinopiperidine-1-yl)methanone]
[1]
  remaining binding at 1 µM: 94%
[2]
  remaining binding at 1 µM: 100%
[3]
  remaining binding at 1 µM: 91%
[4]
  remaining binding at 1 µM: 92%
[5]
  remaining binding at 1 µM: 83%
[6]
  remaining binding at 1 µM: 84%
[7]
  remaining binding at 1 µM: 100%
[8]
  remaining binding at 1 µM: 94%
[9]
  remaining binding at 1 µM: 72%
[10]
  remaining binding at 1 µM: 98%
[11]
  remaining binding at 1 µM: 96%
[12]
  remaining binding at 1 µM: 69%
[13]
  remaining binding at 1 µM: 83%

## CC1(Nc2nc(Nc3cnn([C@H]4CCN(C5COC5)C[C@@H]4F)c3Cl)nc3[nH]cc(C#N)c23)CC1 [Example 52, 2-((5-chloro-1-((3S,4S)-3-fluoro-1-(oxetane-3-yl)piperidine-4-yl)-1H-pyrazole-4-yl)amino)((1-methylcyclopropyl)amino)-7H-pyrrolo[2,3-d]pyrimidine-5-carbonitrile]
[1]
  remaining binding at 1 µM: 97%
[2]
  remaining binding at 1 µM: 4.5%
[3]
  remaining binding at 1 µM: 8.3%
[4]
  remaining binding at 1 µM: 9%
[5]
  remaining binding at 1 µM: 50%
[6]
  remaining binding at 1 µM: 37%
[7]
  remaining binding at 1 µM: 100%
[8]
  remaining binding at 1 µM: 42%
[9]
  remaining binding at 1 µM: 0.1%
[10]
  remaining binding at 1 µM: 100%
[11]
  remaining binding at 1 µM: 71%
[12]
  remaining binding at 1 µM: 0.35%
[13]
  remaining binding at 1 µM: 1.1%

## CNc1nc(Nc2ccc(C(=O)N3CCOCC3)cc2OC)nc2[nH]cc(C#N)c12 [Example 1, 2-((2-methoxy-4-(morpholine-4-carbonyl)phenyl)amino)-4-(methylamino)-7H-pyrrolo[2,3-d]pyrimidine-5-carbonitrile]
[1]
  remaining binding at 1 µM: 100%
[2]
  remaining binding at 1 µM: 70%
[3]
  remaining binding at 1 µM: 76%
[4]
  remaining binding at 1 µM: 96%
[5]
  remaining binding at 1 µM: 79%
[6]
  remaining binding at 1 µM: 94%
[7]
  remaining binding at 1 µM: 93%
[8]
  remaining binding at 1 µM: 84%
[9]
  remaining binding at 1 µM: 100%
[10]
  remaining binding at 1 µM: 91%
[11]
  remaining binding at 1 µM: 82%
[12]
  remaining binding at 1 µM: 74%
[13]
  remaining binding at 1 µM: 90%

From patent publication US11208412B2 (DAEGU-GYEONGBUK MEDICAL INNOVATION FOUNDATION, priority 2017, dated 2021)
